Test results: ChEMBL document CHEMBL5375999, “Discovery of a Dual Tubulin and Neuropilin-1 (NRP1) Inhibitor with Potent In Vivo Anti-Tumor Activity via Pharmacophore-based Docking Screening, Structure Optimization, and Biological Evaluation” (J Med Chem, 2023)
The source made the active and inactive calls. No cut-off for these calls is given here.

Assays:
Tubulin (Homo sapiens) [1] = molecular target: T1, Tubulin (Homo sapiens) (UniProt P68371+Q9H4B7+P0DPH7+P68366+Q13509+Q71U36+P04350+Q3ZCM7+P07437+P68363+Q9BQE3+Q6PEY2+Q13885+Q9BVA1+Q9BUF5); assay: Inhibition of tubulin polymerization in human PC-3 cells assessed as nucleus disappearance at 2.5 to 12.5 uM incubated for 48 hrs by immunofluorescence assay; assay type: cell-based; details: dose 2.5-12.5 µM
PC-3 [2] = assay: Antiangiogenesis activity in human PC-3 cells assessed as inhibition of tube formation incubated for 8 to 15 hrs by matrigel based inverted microscopic analysis; assay type: functional, cell-based; details: dose 0.1-12.5 µM, time 8-15 hrs
PC-3 [3] = assay: Induction of apoptosis in human PC-3 cells assessed as late apoptotic cells at 12.5 uM by Annexin-V FITC staining based flow cytometry analysis (reference value: 1.67%); assay type: functional
[4] = molecular target: Mitogen-activated protein kinase 8 (Homo sapiens, UniProt P45983); assay: Inhibition of JNK1 (unknown origin)
Sequence of Mitogen-activated protein kinase 8 (P45983 whole entry): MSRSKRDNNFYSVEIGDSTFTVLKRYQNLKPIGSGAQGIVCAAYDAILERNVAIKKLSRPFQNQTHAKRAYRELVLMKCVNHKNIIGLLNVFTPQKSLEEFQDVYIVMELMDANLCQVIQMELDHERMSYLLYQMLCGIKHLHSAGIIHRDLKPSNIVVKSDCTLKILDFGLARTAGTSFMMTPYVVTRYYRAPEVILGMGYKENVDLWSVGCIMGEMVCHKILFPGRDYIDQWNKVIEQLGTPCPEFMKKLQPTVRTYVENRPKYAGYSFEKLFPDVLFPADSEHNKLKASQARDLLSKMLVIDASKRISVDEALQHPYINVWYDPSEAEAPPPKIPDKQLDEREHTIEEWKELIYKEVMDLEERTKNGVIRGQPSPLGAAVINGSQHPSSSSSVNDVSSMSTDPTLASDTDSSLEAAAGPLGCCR

[5] = molecular target: Cyclin-dependent kinase 8 (Homo sapiens, UniProt P49336); assay: Inhibition of CDK8 (unknown origin)
[6] = molecular target: ALK tyrosine kinase receptor (Homo sapiens, UniProt Q9UM73); assay: Inhibition of ALK (unknown origin)
[7] = molecular target: Cyclin-G-associated kinase (Homo sapiens, UniProt O14976); assay: Inhibition of GAK (unknown origin)
PC-3 [8] = assay: Antiproliferative activity against human PC-3 cells assessed as inhibition of cell growth at 0.1 to 12.5 uM incubated for 48 hrs by EdU incorporation based assay; assay type: functional; details: dose 0.1-12.5 µM
PC-3 [9] = assay: Induction of cell cycle arrest in human PC-3 cells assessed as S phase cells at 2.5 uM by flow cytometry analysis (reference value: 2%); assay type: functional
Tubulin (Homo sapiens) [10] = molecular target: T1, Tubulin (Homo sapiens); assay: Inhibition of tubulin polymerization in human PC-3 cells assessed as increase in nuclear disruption incubated for 48 hrs by immunofluorescence assay; assay type: cell-based; details: dose 0.1-12.5 µM
Tubulin (Homo sapiens) [11] = molecular target: T1, Tubulin (Homo sapiens); assay: Inhibition of tubulin polymerization in human PC-3 cells assessed as increase in microtubule dispersion incubated for 48 hrs by immunofluorescence assay; assay type: cell-based; details: dose 0.1-12.5 µM
[12] = molecular target: Atypical kinase COQ8B, mitochondrial (Homo sapiens, UniProt Q96D53); assay: Inhibition of ADCK4 (unknown origin)
[13] = Toxicity in BALB/c mouse xenografted with human PC-3 cells assessed as change in heart morphology at 5 to 10 mg/kg, ip administered every 4 days for 20 days by H and E staining based inverted microscopic assay; assay type: organism-based; details: in vivo, 480 h, dose 5-10 mg/kg, time 20 day
PC-3 [14] = assay: Induction of apoptosis in human PC-3 cells assessed as increase in cleaved PARP expression at 0.5 to 12.5 uM incubated for 48 hrs by Western blotting analysis; assay type: functional, cell-based; details: dose 0.5-12.5 µM
[15] = molecular target: STE20-like serine/threonine-protein kinase (Homo sapiens, UniProt Q9H2G2); assay: Inhibition of SLK (unknown origin)
PC-3 [16] = assay: Induction of cell cycle arrest in human PC-3 cells assessed as G0/G1 phase cells at 2.5 uM by flow cytometry analysis (reference value: 94.76%); assay type: functional
PC-3 [17] = assay: Induction of apoptosis in human PC-3 cells assessed as necrotic cells at 12.5 uM by Annexin-V FITC staining based flow cytometry analysis (reference value: 0.059%); assay type: functional
[18] = molecular target: Vascular endothelial growth factor A, long form (Homo sapiens, UniProt P15692); assay: Inhibition of VEGF (unknown origin)
Sequence of Vascular endothelial growth factor A, long form (P15692 whole entry): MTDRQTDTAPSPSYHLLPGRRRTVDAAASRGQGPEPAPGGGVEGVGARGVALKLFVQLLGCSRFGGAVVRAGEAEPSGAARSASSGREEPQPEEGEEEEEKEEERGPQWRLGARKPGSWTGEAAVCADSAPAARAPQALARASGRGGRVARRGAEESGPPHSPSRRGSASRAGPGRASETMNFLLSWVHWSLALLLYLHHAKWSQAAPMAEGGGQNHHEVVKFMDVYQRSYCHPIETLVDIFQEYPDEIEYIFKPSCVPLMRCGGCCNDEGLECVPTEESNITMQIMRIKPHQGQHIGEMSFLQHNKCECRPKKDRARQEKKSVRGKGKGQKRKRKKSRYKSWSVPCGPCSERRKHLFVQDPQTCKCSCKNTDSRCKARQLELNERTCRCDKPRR

PC-3 [19] = assay: Induction of cell cycle arrest in human PC-3 cells assessed as G0/G1 phase cells at 0.1 uM by flow cytometry analysis (reference value: 94.76%); assay type: functional
[20] = molecular target: Hepatocyte growth factor receptor (Homo sapiens, UniProt P08581); assay: Inhibition of MET (unknown origin)
Sequence of Hepatocyte growth factor receptor (P08581 whole entry): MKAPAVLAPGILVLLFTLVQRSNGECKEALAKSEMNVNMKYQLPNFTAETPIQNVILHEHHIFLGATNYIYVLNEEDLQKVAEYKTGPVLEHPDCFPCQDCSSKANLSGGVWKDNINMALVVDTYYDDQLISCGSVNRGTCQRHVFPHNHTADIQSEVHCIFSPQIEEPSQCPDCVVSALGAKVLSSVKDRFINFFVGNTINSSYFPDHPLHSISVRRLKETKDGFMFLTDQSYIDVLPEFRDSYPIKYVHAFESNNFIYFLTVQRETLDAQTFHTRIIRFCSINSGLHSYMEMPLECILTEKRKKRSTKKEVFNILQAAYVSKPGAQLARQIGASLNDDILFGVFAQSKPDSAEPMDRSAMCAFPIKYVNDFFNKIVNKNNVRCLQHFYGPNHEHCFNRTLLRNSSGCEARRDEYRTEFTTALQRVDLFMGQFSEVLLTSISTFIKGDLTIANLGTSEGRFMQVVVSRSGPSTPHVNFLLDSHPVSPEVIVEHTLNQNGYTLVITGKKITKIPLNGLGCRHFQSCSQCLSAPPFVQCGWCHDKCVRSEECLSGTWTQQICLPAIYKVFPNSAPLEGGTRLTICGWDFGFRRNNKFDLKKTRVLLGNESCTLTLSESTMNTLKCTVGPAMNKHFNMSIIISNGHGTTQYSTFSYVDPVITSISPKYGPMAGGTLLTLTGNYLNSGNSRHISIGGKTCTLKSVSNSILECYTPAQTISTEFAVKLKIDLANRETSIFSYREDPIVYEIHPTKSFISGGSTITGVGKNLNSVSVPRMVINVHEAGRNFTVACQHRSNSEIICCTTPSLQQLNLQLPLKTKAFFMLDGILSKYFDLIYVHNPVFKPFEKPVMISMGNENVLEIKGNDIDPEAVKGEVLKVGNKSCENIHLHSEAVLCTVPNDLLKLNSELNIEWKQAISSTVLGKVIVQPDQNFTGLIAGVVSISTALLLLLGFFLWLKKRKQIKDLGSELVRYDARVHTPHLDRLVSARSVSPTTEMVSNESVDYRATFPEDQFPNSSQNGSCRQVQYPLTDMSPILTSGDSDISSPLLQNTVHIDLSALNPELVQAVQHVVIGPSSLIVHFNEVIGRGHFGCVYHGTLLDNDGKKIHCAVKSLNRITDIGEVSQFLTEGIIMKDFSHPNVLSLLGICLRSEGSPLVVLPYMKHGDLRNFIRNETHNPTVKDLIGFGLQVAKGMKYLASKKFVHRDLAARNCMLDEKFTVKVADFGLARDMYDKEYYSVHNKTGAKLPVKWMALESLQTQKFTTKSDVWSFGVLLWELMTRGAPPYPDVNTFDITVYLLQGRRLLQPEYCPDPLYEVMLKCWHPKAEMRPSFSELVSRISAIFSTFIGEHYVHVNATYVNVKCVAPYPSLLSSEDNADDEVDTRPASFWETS

[21] = molecular target: Vascular endothelial growth factor receptor 2 (Homo sapiens, UniProt P35968); assay: Inhibition of VEGF-induced VEGFR2 signal pathway in HUVECs assessed as reduction in p-VEGFR2 level at 12.5 uM relative to control; assay type: cell-based; details: HUVEC
PC-3 [22] = assay: Antiangiogenesis activity in human PC-3 cells assessed as reduction in network formation by interconnected cells at 0.1 to 12.5 uM incubated for 8 to 15 hrs by matrigel based inverted microscopic analysis; assay type: functional, cell-based; details: dose 0.1-12.5 µM, time 8-15 hrs
[23] = molecular target: Cyclin-dependent kinase 9 (Homo sapiens, UniProt P50750); assay: Inhibition of CDK9 (unknown origin)
Sequence of Cyclin-dependent kinase 9 (P50750 whole entry): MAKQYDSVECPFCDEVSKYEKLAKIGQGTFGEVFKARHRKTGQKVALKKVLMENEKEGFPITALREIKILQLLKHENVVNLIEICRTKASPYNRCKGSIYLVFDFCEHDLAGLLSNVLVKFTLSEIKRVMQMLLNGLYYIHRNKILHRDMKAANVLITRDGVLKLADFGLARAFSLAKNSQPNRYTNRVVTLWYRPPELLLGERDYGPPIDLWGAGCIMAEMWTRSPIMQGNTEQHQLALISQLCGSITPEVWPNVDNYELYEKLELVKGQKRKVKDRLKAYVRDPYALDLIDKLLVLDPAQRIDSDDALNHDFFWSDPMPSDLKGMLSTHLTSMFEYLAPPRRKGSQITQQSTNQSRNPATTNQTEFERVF

PC-3 [24] = assay: Antitumor activity against human PC-3 cells xenografted in BALB/c nude mouse assessed as tumor disappearance at 10 mg/kg, ip administered every 4 days for 20 days; assay type: functional, organism-based; details: time 20.0 day
PC-3 [25] = assay: Antitumor activity against human PC-3 cells xenografted in BALB/c nude mouse assessed as reduction in tumor weight at 5 to 10 mg/kg, ip administered every 4 days for 20 days; assay type: functional, organism-based; details: dose 5-10 mg/kg, time 20.0 day
[26] = Toxicity in BALB/c mouse xenografted with human PC-3 cells assessed as change body weight at 5 to 10 mg/kg, ip administered every 4 days for 20 days; assay type: organism-based; details: in vivo, 480 h, dose 5-10 mg/kg, time 20 day
[27] = molecular target: Phosphatidylinositol 4,5-bisphosphate 3-kinase catalytic subunit alpha isoform (Homo sapiens, UniProt P42336); assay: Inhibition of PIK3CA (unknown origin)
[28] = molecular target: Serine/threonine-protein kinase B-raf (Homo sapiens, UniProt P15056); assay: Inhibition of BRAF (unknown origin)
Sequence of Serine/threonine-protein kinase B-raf (P15056 whole entry, the tested form may be a part): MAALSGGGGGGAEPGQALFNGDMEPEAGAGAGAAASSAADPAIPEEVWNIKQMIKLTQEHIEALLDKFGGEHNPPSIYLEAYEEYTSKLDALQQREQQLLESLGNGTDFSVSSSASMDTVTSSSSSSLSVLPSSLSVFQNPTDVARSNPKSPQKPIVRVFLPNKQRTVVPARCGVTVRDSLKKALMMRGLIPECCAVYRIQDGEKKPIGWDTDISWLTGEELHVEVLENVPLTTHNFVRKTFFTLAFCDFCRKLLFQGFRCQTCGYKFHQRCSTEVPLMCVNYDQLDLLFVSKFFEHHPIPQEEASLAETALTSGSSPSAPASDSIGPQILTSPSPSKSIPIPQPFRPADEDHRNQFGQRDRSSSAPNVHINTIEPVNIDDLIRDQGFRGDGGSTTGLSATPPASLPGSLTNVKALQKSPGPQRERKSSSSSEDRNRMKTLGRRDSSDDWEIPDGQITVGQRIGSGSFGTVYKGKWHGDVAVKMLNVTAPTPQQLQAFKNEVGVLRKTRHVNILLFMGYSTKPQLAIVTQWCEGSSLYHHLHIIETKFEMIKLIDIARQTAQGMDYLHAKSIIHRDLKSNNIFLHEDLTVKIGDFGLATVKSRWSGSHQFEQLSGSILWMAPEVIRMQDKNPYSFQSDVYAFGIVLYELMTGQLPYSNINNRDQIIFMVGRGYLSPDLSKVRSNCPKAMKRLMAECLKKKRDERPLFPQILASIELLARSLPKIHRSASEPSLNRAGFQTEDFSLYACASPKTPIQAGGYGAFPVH

[29] = molecular target: Ankyrin repeat and protein kinase domain-containing protein 1 (Homo sapiens, UniProt Q8NFD2); assay: Inhibition of ANKK1 (unknown origin)
Sequence of Ankyrin repeat and protein kinase domain-containing protein 1 (Q8NFD2 whole entry, the tested form may be a part): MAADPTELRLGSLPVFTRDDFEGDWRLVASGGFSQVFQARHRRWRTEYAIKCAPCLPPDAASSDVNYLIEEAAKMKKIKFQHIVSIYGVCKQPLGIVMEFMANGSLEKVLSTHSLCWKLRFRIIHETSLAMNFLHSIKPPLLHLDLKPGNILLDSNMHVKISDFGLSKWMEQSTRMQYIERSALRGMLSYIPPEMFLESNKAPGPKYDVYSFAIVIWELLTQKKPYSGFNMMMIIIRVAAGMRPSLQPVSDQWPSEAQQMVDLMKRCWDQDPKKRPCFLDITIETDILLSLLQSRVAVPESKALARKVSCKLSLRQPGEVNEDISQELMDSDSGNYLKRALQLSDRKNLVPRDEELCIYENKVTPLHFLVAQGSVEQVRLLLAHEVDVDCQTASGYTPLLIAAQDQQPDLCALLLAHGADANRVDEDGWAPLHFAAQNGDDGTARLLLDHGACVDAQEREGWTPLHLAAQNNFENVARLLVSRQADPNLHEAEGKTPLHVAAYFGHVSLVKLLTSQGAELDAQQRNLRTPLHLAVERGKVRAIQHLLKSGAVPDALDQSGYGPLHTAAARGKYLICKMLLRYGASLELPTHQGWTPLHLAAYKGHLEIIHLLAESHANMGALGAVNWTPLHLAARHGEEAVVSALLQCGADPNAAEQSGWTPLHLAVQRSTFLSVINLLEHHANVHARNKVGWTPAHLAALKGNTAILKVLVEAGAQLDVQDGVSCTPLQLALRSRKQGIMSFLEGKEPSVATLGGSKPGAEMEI

[30] = molecular target: Tyrosine-protein kinase Blk (Homo sapiens, UniProt P51451); assay: Inhibition of BLK (unknown origin)
Sequence of Tyrosine-protein kinase Blk (P51451 whole entry): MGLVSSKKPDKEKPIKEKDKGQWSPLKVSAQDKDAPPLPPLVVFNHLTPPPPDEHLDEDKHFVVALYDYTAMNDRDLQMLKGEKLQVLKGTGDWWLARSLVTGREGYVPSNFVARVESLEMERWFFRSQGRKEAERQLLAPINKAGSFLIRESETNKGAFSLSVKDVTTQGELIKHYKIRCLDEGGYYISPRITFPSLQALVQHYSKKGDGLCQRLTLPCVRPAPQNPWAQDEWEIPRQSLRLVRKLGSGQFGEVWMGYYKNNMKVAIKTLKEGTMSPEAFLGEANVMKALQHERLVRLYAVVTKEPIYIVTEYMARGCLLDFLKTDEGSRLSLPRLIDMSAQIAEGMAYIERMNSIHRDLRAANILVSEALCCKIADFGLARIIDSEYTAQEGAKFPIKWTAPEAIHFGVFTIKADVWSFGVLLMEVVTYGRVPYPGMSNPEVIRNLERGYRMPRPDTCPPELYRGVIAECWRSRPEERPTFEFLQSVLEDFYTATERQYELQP

HUVEC [31] = assay: Antiinvasive activity against HUVECs at 0.1 to 12.5 uM incubated for 24 hrs by crystal violet staining based optical microscopic analysis; assay type: functional, cell-based; details: Homo sapiens, dose 0.1-12.5 µM
[32] = molecular target: Serine/threonine-protein kinase PLK1 (Homo sapiens, UniProt P53350); assay: Inhibition of PLK1 (unknown origin)
PC-3 [33] = assay: Induction of cell cycle arrest in human PC-3 cells assessed as G0/G1 phase cells at 12.5 uM by flow cytometry analysis (reference value: 94.76%); assay type: functional
VCaP = assay: Cytotoxicity against human VCaP cells assessed as inhibition of cell viability incubated for 48 hrs by MTT assay; assay type: functional, cell-based
[34] = molecular target: Cyclin-dependent kinase 4 (Homo sapiens, UniProt P11802); assay: Inhibition of CDK4 (unknown origin)
Sequence of Cyclin-dependent kinase 4 (P11802 whole entry): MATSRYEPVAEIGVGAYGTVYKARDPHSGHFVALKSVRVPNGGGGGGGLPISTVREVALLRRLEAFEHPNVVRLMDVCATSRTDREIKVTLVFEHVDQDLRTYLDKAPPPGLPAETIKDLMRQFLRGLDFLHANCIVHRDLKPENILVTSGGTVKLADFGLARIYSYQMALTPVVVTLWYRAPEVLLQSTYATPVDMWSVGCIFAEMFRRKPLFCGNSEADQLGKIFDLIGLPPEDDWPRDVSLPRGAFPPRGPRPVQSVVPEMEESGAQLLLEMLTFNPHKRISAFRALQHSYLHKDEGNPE

HUVEC [35] = assay: Antimigratory activity against HUVECs at 0.1 to 12.5 uM incubated for 24 to 48 hrs by wound healing assay; assay type: functional, cell-based; details: Homo sapiens, dose 0.1-12.5 µM, time 24-48 hrs

COc1ccc(/C=C\c2cc(OC)c(OC)c(OC)c2)cc1NC(=O)CCC(=O)N[C@@H](CCCNC(=N)N)C(=O)O
inhibition (Tubulin (Homo sapiens) [1]): Active | Activity (PC-3 [2]): Dose-Dependent Effect | Activity (PC-3 [3]): 6.04% | IC50 [4]: > 10 µM | IC50 [5]: > 10 µM | IC50 [6]: > 10 µM | IC50 [7]: > 10 µM | Activity (PC-3 [8]): Active | Activity (PC-3 [9]): 3.67% | inhibition (Tubulin (Homo sapiens) [10]): Dose-Dependent Effect | inhibition (Tubulin (Homo sapiens) [11]): Dose-Dependent Effect | IC50 [12]: > 10 µM | Activity [13]: Non-Toxic | Activity (PC-3 [14]): Active | IC50 [15]: > 10 µM | Activity (PC-3 [16]): 84.75% | Activity (PC-3 [17]): 0.083% | IC50 [18]: > 10 µM | Activity (PC-3 [19]): 93.57% | IC50 [20]: > 10 µM | inhibition [21]: 50% | Activity (PC-3 [22]): Active | IC50 [23]: > 10 µM | Activity (PC-3 [24]): Active | Activity (PC-3 [25]): Active | Activity [26]: Non-Toxic | IC50 [27]: > 10 µM | IC50 [28]: > 10 µM | IC50 [29]: > 10 µM | IC50 [30]: > 10 µM | Activity (HUVEC [31]): Active | IC50 [32]: > 10 µM | Activity (PC-3 [33]): 51.13% | Activity (VCaP): Active | IC50 [34]: > 10 µM | Activity (HUVEC [35]): Active
